Laboratory results taken from patent US20250345295A1, “LMK235 COMPOSITIONS AND METHODS” (UNM Rainforest Innovations, priority 2024, published 2025).

System: differentially expressed genes in TG
Assay: RNAseq gene expression profiling of TG
Format: in vivo, mouse
Method: Gene expression profiling was performed on TG from mice with/without nerve injury during the acute phase (three weeks post injury) in TIC mice and after transition to chronic pain (10 weeks post injury) in FRICT-ION mice by Quick Biology Inc. (Monrovia, CA).
Total RNA from ipsilateral TG was isolated using the Rneasy Mini Kit (Qiagen, Valencia, CA). Gene expression profiling and analysis with RNA was done by Quick Biology Inc. (Monrovia, CA). RNAseq library preparation was performed by Quick Biology Inc. (Monrovia, CA), sequencing was performed using an Illumina HiSeq 4000 at 40 million reads per sample. The reads were first mapped to the latest UCSC transcript set using Bowtie2 version 2.1.0 and the gene expression level was estimated using RSEM v1.2.15. Differentially expressed genes were identified using the edgeR program. Genes showing altered expression with p<0.05 were considered differentially expressed.

[1] = LMK235-Treated FRICT-ION Vs Naive
[2] = LMK235-Treated FRICT-ION Vs Untreated FRICT-ION
[3] = TG RNAseq, FRICT-ION mice treated with LMK235 vs naive, week 10
[4] = TG RNAseq, LMK235-treated vs untreated FRICT-ION mice

## Cc1cc(C)cc(C(=O)NOCCCCCC(=O)NO)c1 [LMK235, N-[[6-(Hydroxyamino)-6-oxohexyl]oxy]-3,5-dimethyl-benzamide]
[1]
  Fold-change Arfgef2: 1.02
  Fold-change Astn2: 1.04
  Fold-change Bmp2: 1.11
  Fold-change Bmp3: −1.23
  Fold-change Bmp4: 1.18
  Fold-change Bmp5: 1.85
  Fold-change Cacna1a: −1.06
  Fold-change Cacna1g: −1.00
  Fold-change Cacna1i: −1.14
  Fold-change Cacna1h: −1.11
  Fold-change Cacna1d: −1.03
  Fold-change Cacnb1: −1.02
  Fold-change Clcn1: −1.33
  Fold-change Clcn2: −1.11
  Fold-change Clic5: −1.08
  Fold-change Eef2: −1.05
  Fold-change Gabra5: 1.02
  Fold-change Gabra6: 1.18
  Fold-change Gabre: −1.22
  Fold-change Gabrg1: 1.26
  Fold-change Jakmip1: 1.02
  Fold-change Kcna5: −1.06
  Fold-change Kcnc3: −1.05
  Fold-change Kcnd2: 1.09
  Fold-change Kcnh2: −1.06
  Fold-change Kcnh7: 1.03
  Fold-change Kcnj6: −1.10
  Fold-change Kcnk1: −1.02
  Fold-change Kcns2: 1.12
  Fold-change Kcnv1: 1.26
  Fold-change Kif1b: 1.01
  Fold-change Maoa: 1.08
  Fold-change Mapk3: −1.02
  Fold-change Mpz: 1.07
  Fold-change Nacc2: −1.05
  Fold-change Nav3: 1.12
  Fold-change Ncald: 1.05
  Fold-change Ndnf: 1.31
  Fold-change Net1: −1.11
  Fold-change Neurod4: −1.13
  Fold-change Nf2: −1.02
  Fold-change Nfasc: −1.09
  Fold-change Ngef: −1.06
  Fold-change Nkain2: 1.05
  Fold-change Nova1: 1.04
  Fold-change Nras: −1.00
  Fold-change Nrep: 1.04
  Fold-change Nrg2: 1.04
  Fold-change Nrg3: 1.09
  Fold-change Nrp2: 1.07
  Fold-change Ntrk1: −1.09
  Fold-change Nts: 1.18
  Fold-change Plcl1: 1.12
  Fold-change Scn2a1: 1.10
  Fold-change Scn3a: 1.11
  Fold-change Scn5a: 1.23
  Fold-change Scn7a: 1.07
  Fold-change Scn8a: −1.07
  Fold-change Scn9a: 1.01
  Fold-change Slc6a4: −1.11
  Fold-change Trak1: −1.05
  Fold-change Trpc6: −1.08
  Fold-change Trpm2: −1.10
  Fold-change Trpm3: 1.12
  Fold-change Trpm4: −1.14
  Fold-change Trpm7: 1.10
  Fold-change Trps1: 1.14
  Fold-change Trpv4: 2.12
  Fold-change Trpv6: −1.07
  Fold-change Unc80: 1.07
[2]
  Fold-change Arfgef2: 1.01
  Fold-change Astn2: 1.0
  Fold-change Bmp2: −1.02
  Fold-change Bmp3: −2.70
  Fold-change Bmp4: 1.05
  Fold-change Bmp5: −1.01
  Fold-change Cacna1a: −1.16
  Fold-change Cacna1g: −1.43
  Fold-change Cacna1i: −1.39
  Fold-change Cacna1h: −1.49
  Fold-change Cacna1d: −1.04
  Fold-change Cacnb1: −1.13
  Fold-change Clcn1: −1.05
  Fold-change Clcn2: 1.01
  Fold-change Clic5: −1.05
  Fold-change Eef2: 1.01
  Fold-change Gabra5: −1.23
  Fold-change Gabra6: 2.08
  Fold-change Gabre: 1.10
  Fold-change Gabrg1: 1.14
  Fold-change Jakmip1: −1.10
  Fold-change Kcna5: −1.41
  Fold-change Kcnc3: −1.04
  Fold-change Kcnd2: −1.00
  Fold-change Kcnh2: −1.04
  Fold-change Kcnh7: −1.19
  Fold-change Kcnj6: −1.38
  Fold-change Kcnk1: 1.05
  Fold-change Kcns2: −1.25
  Fold-change Kcnv1: 1.09
  Fold-change Kif1b: 1.01
  Fold-change Maoa: 1.14
  Fold-change Mapk3: −1.00
  Fold-change Mpz: −1.05
  Fold-change Nacc2: −1.00
  Fold-change Nav3: −1.19
  Fold-change Ncald: 1.03
  Fold-change Ndnf: 1.06
  Fold-change Net1: 1.12
  Fold-change Neurod4: 1.57
  Fold-change Nf2: 1.04
  Fold-change Nfasc: −1.02
  Fold-change Ngef: −1.34
  Fold-change Nkain2: −1.14
  Fold-change Nova1: 1.04
  Fold-change Nras: −1.03
  Fold-change Nrep: 1.01
  Fold-change Nrg2: 1.10
  Fold-change Nrg3: −1.00
  Fold-change Nrp2: 1.07
  Fold-change Ntrk1: 1.80
  Fold-change Nts: −1.74
  Fold-change Plcl1: 1.13
  Fold-change Scn2a1: −1.04
  Fold-change Scn3a: −1.01
  Fold-change Scn5a: 1.01
  Fold-change Scn7a: −1.07
  Fold-change Scn8a: 1.05
  Fold-change Scn9a: 1.29
  Fold-change Slc6a4: 4.38
  Fold-change Trak1: −1.01
  Fold-change Trpc6: 1.08
  Fold-change Trpm2: −1.02
  Fold-change Trpm3: 1.19
  Fold-change Trpm4: 1.05
  Fold-change Trpm7: 1.06
  Fold-change Trps1: 1.03
  Fold-change Trpv4: 1.21
  Fold-change Trpv6: −1.19
  Fold-change Unc80: 1.10
TG RNAseq, FRICT-ION + LMK235 VS FRICT-ION
  Fold change S100a9: −2.74
[3]
  C1q14 RNA level vs naïve: not significantly different from naïve mice
  Crhbp RNA level vs naïve: not significantly different form naïve controls
  P2rx4 RNA level vs naïve: not different from naïves
  Slfn4 RNA level vs naïve: not different from naïve controls
TG RNAseq, LMK235-treated and untreated FRICT-ION mice
  P2rx7 foldchanges: minimal and insignificant foldchanges
[4]
  Bmp2 downregulated, fold: 1.02 fold
  Bmp3 downregulated, fold: 2.70 fold
  Bmp4 expression change: not affected
  Bmp5 downregulated, fold: 1.01 fold
  Cacna1a downregulated, fold: 1.16 fold
  Cacna1 downregulated, fold: 1.39 fold
  Cacna1g downregulated, fold: 1.43 fold
  Cacna1h downregulated, fold: 1.49 fold
  Cacna1d downregulated, fold: 1.04 fold
  CacnbI downregulated, fold: 1.13 fold
  Clcn2 upregulated, fold: 1.01 fold
  Kcna5 downregulated, fold: 1.41 fold
  Kcnd2 downregulated, fold: 1.00 fold
  Kcne2 reduced, fold (insignificant): 1.56 fold
  Kcnh7 downregulated, fold: 1.19 fold
  Kcnj6 downregulated, fold: 1.38 fold
  Kcnk1 upregulated, fold: 1.05 fold
  Kcns2 downregulated, fold: 1.25 fold
  Maoa upregulated, fold: 1.14 fold
  Mpz downregulated, fold: 1.05 fold
